In ChEMBL document CHEMBL1138159, “Enantiomer discrimination illustrated by the high resolution crystal structures of type 4 phosphodiesterase” (J Med Chem, 2006):

Experiments:
[1] = molecular target: T1, 3',5'-cyclic-AMP phosphodiesterase 4A (Homo sapiens, UniProt P27815); test: Inhibition of PDE4A with respect to increase in cAMP concentration
[2] = molecular target: 3',5'-cyclic-AMP phosphodiesterase 4B (Homo sapiens, UniProt Q07343); test: Inhibition of PDE4B
[3] = molecular target: 3',5'-cyclic-AMP phosphodiesterase 4C (Homo sapiens, UniProt Q08493); test: Inhibition of PDE4C
[4] = molecular target: T1, 3',5'-cyclic-AMP phosphodiesterase 4A; test: Inhibition of PDE4A

T1 sequence (P27815 whole entry): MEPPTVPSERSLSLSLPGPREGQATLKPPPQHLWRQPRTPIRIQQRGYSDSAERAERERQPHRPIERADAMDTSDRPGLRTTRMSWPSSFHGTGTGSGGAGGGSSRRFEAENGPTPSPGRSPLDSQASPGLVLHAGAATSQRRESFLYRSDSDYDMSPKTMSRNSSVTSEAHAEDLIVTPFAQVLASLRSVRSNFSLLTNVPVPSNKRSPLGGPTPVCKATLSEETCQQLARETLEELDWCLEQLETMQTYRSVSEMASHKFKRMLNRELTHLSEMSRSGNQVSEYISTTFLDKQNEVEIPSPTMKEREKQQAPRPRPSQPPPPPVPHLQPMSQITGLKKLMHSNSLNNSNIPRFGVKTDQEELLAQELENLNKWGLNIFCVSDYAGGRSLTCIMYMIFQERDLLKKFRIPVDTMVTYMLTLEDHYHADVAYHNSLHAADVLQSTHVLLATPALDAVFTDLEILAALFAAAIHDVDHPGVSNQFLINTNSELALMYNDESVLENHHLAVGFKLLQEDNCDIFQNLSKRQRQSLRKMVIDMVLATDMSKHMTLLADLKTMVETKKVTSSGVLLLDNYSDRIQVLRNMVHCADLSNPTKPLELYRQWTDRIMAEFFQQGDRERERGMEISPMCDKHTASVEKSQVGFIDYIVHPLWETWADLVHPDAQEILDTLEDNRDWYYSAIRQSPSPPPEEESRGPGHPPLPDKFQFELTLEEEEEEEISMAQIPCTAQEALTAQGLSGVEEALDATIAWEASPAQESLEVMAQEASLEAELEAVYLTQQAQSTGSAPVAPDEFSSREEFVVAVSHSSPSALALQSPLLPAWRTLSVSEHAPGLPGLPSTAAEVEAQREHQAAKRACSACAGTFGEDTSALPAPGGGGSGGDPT
Chain of 3',5'-cyclic-AMP phosphodiesterase 4C (Q08493 whole entry): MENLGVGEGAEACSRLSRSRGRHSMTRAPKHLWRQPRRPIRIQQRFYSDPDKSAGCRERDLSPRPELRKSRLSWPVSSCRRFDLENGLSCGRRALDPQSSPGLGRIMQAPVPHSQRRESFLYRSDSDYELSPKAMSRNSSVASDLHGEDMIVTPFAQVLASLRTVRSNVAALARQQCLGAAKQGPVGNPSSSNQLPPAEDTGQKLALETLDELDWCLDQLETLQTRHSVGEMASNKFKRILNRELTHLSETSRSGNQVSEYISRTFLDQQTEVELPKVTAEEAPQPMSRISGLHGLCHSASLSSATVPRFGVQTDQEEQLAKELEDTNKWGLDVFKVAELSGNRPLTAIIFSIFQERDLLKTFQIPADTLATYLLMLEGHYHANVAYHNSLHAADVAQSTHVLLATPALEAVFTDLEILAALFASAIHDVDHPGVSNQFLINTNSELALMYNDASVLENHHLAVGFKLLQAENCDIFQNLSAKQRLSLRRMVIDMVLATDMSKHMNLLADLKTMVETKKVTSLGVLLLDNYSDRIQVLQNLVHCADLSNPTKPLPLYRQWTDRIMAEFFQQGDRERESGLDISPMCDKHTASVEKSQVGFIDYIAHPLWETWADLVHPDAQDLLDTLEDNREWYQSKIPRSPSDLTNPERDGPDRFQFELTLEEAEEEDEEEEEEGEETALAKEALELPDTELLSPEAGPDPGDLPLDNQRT
Chain of 3',5'-cyclic-AMP phosphodiesterase 4B (Q07343 whole entry): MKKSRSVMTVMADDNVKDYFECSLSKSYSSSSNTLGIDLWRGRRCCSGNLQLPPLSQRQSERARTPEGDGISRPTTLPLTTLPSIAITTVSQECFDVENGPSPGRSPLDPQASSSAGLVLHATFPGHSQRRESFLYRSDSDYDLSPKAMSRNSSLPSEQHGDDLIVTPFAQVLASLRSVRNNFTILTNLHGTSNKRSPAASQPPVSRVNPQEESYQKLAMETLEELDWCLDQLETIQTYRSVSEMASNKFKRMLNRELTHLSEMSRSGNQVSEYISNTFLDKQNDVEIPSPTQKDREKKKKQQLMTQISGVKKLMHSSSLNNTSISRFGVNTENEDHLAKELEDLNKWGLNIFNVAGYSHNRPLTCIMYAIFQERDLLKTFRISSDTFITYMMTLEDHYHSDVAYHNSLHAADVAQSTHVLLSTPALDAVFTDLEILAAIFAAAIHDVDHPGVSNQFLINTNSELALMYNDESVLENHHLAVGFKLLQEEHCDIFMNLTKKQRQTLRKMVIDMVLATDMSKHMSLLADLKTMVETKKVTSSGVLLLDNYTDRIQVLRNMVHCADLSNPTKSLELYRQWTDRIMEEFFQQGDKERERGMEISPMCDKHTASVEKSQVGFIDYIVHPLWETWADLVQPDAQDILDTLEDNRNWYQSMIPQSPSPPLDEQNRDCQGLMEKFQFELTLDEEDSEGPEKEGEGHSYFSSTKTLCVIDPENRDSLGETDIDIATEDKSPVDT

In the case of `[O-][n+]1cccc(C[C@@H](c2ccc(OC(F)F)c(OC3CC3)c2)c2cnc(C(O)(C(F)(F)F)C(F)(F)F)s2)c1`, the Ki [1] is reported as 0.43 nM.
Work on `[O-][n+]1cccc(C[C@H](c2ccc(OC(F)F)c(OC3CC3)c2)c2cnc(C(O)(C(F)(F)F)C(F)(F)F)s2)c1` yielded an IC50 [2] of 40 nM, an IC50 [3] of 135 nM and an IC50 [4] of 56 nM.
